Structures can show the parent of a compound that is named as a salt. Blank lines part the entries; values can stand above or below the molecule they belong to.
Assays:
Type in all cases: physicochemical
[1] = Solubility assessment (solvent added in 10 volume aliquots)
Protocol: For each solvent investigated, approximately 8 mg of compound 1 was weighed into an 8 ml screw top glass vial. The solvent was added in 10 volume aliquots and the mixture sonicated and warmed (with a hot-air gun) to encourage dissolution. If dissolution was not achieved after the addition of 100 volumes of solvent, a further 100 volumes was added.

[2] = as above; remark: listed apart in the source
[3] = Gravimetric Vapour Sorption (GVS)
Protocol: Sorption isotherms were obtained using a SMS DVS Intrinsic moisture sorption analyser, controlled by SMS Analysis Suite software. The sample temperature was maintained at 25° C. by the instrument controls. The humidity was controlled by mixing streams of dry and wet nitrogen, with a total flow rate of 200 ml.min^−1. The relative humidity was measured by a calibrated Rotronic probe (dynamic range of 1.0-100% RH), located near the sample. The weight change, (mass relaxation) of the sample as a function of % RH was constantly monitored by the microbalance (accuracy ±0.005 mg). Typically 5-20 mg of sample was placed in a tared mesh stainless steel basket under ambient conditions. The sample was loaded and unloaded at 40% RH and 25° C. (typical room conditions). A moisture sorption isotherm was performed as outlined below (2 scans giving 1 complete cycle). The standard isotherm was performed at 25° C. at 10% RH intervals over a 0.5-90% RH range.
The hygroscopicity of the citrate was investigated by carrying out a gravimetric vapour sorption experiment on Batch 4. A sample of approximately 20 mg was held at 25° C. whilst the humidity of its environment was changed through two complete cycles. […] The sample takes longer to reach equilibrium in the early stages of the experiment. This may be due to displacement of residual solvent.

[4] = Polymorphism assessment (XRPD after 25° C./50° C. cycles in solvent)
Protocol: The vials were then placed in a humidity chamber and subjected to cycles of 25° C./50° C. (8 hour cycles) for 24 hours. At the end of this time the samples were examined and then left with loosened lids to allow for evaporation of the solvent. Those samples which had dried out were then transferred to a quartz array, whilst those for which there was still solvent present, were filtered under vacuum onto a sinter. The samples were then analysed by XRPD to assess their crystalline state and form.

[5] = Phase stability by XRPD after storage at 40° C. and 75% relative humidity for one week; conditions: solid form by low resolution XRPD after one week
Protocol: Condition 2 (Low Resolution)
X-Ray Powder Diffraction patterns were also collected on a Bruker D8 diffractometer using Cu K[…] radiation (40 kV, 40 mA), θ-2θ goniometer, and divergence of V4 and receiving slits, a Ge monochromator and a Lynxeye detector. The instrument is performance checked using a certified Corundum standard (NIST 1976). The software used for data collection was Diffrac Plus XRD Commander v2.5.0 and the data were analysed and presented using Diffrac Plus EVA v 11.0.0.2 or v 13.0.0.2. Samples were run under ambient conditions as flat plate specimens using powder as received. Approximately 15 mg of the sample was gently packed into a cavity cut into polished, zerobackground (510) silicon wafer. The sample was rotated in its own plane during analysis. The details of the data collection are:
The samples which had been prepared for the collection of low resolution XRPD traces were placed in a chamber maintained at 40° C. and 75% relative humidity. After one week the samples were reanalysed by low resolution XRPD (Condition 2), to check for phase changes. It can be seen that no phase change has occurred, and that citrate salts of the invention are stable for at least one week under these conditions.

[6] = Differential Scanning Calorimetry (DSC); conditions: heated at 10° C.min^−1
Protocol: Differential Scanning Calorimetry (DSC) data were collected on a Mettler DSC 823e equipped with a 34 position auto-sampler. The instrument was calibrated for energy and temperature using certified indium. Typically 0.5-3 mg of each sample, in a pin-holed aluminium pan, was heated at 10° C.min^−1 from 25° C. to 350° C. A nitrogen purge at 50 ml.min^−1 was maintained over the sample. The instrument control and data analysis software was STARe v9.10.

[7] = Thermogravimetric Analysis (TGA)
Protocol: Thermogravimetric Analysis (TGA) data were collected on a Mettler TGA/SDTA 851e equipped with a 34 position autosampler. The instrument was temperature calibrated using certified indium. Typically 5-30 mg of each sample was loaded onto a pre-weighed aluminium crucible and was heated at 10° C.min^−1 from ambient temperature to 350° C. A nitrogen purge at 50 ml.min^−1 was maintained over the sample. The instrument control and data analysis software was STARe v9.10.

SMILES: C1=C2COC/C=C/COCc3cc(ccc3OCCN3CCCC3)Nc3nccc(n3)C(=C1)O2 [Compound I, 9E-15-(2-pyrrolidin-1-yl-ethoxy)-7,12,25-trioxa-19,21,24-triaza-tetracyclo[18.3.1.1(2,5).1(14,18)]hexacosa-1(24),2,4,9,14,16,18(26),20,22-nonaene]
total dissolution in solvent screen ([1]; 11 solvents, up to 200 volumes): total dissolution was only achieved in water

level at which the salt dissolves in water [2]: ≥ 100 mg/mL
hygroscopicity ([3]; GVS, 0% RH to 90% RH): not hygroscopic
maximum weight difference ([3]; between 0% RH and 90% RH, 25° C.): less than 1 % w/w
solubility in organic solvents ([1]; organic solvents of the screen): extremely limited
solid form of recovered solid (XRPD) ([4]; aqueous solution allowed to evaporate): amorphous
solid form of residues (XRPD) ([4]; organic solvent screening samples): Form 1
SMILES: C1=C2COC/C=C/COCc3cc(ccc3OCCN3CCCC3)Nc3nccc(n3)C(=C1)O2 [citrate, 9E-15-(2-pyrrolidin-1-yl-ethoxy)-7,12,25-trioxa-19,21,24-triaza-tetracyclo[18.3.1.1(2,5).1(14,18)]hexacosa-1(24),2,4,9,14,16,18(26),20,22-nonaene citrate]

Phase Stability 1 wk @ 40° C./75% RH [5]: Crystalline Form 1
Differential Scanning Calorimetry complex endotherm onset (significant thermal event) [6]: onset 176 °C
Thermogravimetric Analysis weight change ([7]; 160 to 250° C.): −20% w/w 160 to 250 °C
Thermogravimetric Analysis weight change ([7]; ambient to 160° C.): −0.3% w/w ambient to
SMILES: C1=C2COC/C=C/COCc3cc(ccc3OCCN3CCCC3)Nc3nccc(n3)C(=C1)O2 [Batch 6]

— US9062074B2, “(9E)-15-(2-pyrrolidin-1-yl-ethoxy)-7,12,25-trioxa-19,21,24-triaza-tetracyclo[18.3.1.1(2.5).1(14,18)]hexacosa-1(24),2,4,9,14,16,18(26),20,22-nonaene citrate salt” (CTI BioPharma Corp., priority 2009, dated 2015)
